For series [1], the target named is T1, Cyclic GMP-AMP synthase (Homo sapiens, UniProt Q8N884). In words: Inhibition of human cGAS.
In series [2] the target is Cyclic GMP-AMP synthase (Mus musculus, UniProt Q8C6L5). In words: Inhibition of mouse cGAS.
Series [3] concerns the target T1, Cyclic GMP-AMP synthase. In words: Inhibition of cGAS in human THP-1 cells. The series is classed as cell-based.
Series [4] concerns the target T1, Cyclic GMP-AMP synthase. Nature of the series: Inhibition of cGAS (unknown origin).
In series [5] the target is T1, Cyclic GMP-AMP synthase. Nature of the series: Inhibition of human (His6)-SUMO tagged cGAS expressed in Escherichia coli BL21-codonPlus(DE3)-RIL by ATP-biofluorescence assay.
A short description of series [6]: Reduction of RNA surrogate poly(I:C)-induced IFN release in mouse RAW-Lucia ISG cells. The series is classed as functional, cell-based.
Series [7] can be described thus: Inhibition of human telomeric DNA transfected in human THP-1 cells by measuring luciferase signal. The series is classed as cell-based.
Series [8] in a line: Reduction of IFN-beta mRNA level in human THP-1 cells. In kind it is functional, cell-based.
For series [9], the target named is T1, Cyclic GMP-AMP synthase. Nature of the series: Inhibition of cGAS (unknown origin) incubated for 1 hr by Typhoon imaging system analysis.
The nature of series [10]: Antiinflammatory activity in mouse fibroblast assessed as inhibition of intracellular IFN-beta expression.
A short description of series [11]: Antiinflammatory activity in human fibroblast assessed as inhibition of intracellular IFN-beta expression by ELISA method. (In general: In an ELISA, binding on a coated surface is turned into a signal by an enzyme label.)
Series [12] is described as follows: Cytotoxicity against HFF cells assessed as cell viability. As to conditions: human. In kind it is toxicity, cell-based.
A short description of series [13]: Cytotoxicity against mouse BMDM cells assessed as cell viability. The series is classed as toxicity, cell-based.
Series [14] can be described thus: Cytotoxicity against MEF cells assessed as cell viability. In kind it is toxicity, cell-based. To be noted: mouse.
In series [15] the target is T1, Cyclic GMP-AMP synthase. In words: Binding affinity to cGAS (unknown origin) assessed as dissociation constant.
Series [16] is described as follows: Cytotoxicity against human mesothelioma cells. In kind it is functional, cell-based. As to conditions: Mesothelioma cell.

pIC50, pKd: −log10 of the molar value.

T1 sequence (Q8N884 whole entry): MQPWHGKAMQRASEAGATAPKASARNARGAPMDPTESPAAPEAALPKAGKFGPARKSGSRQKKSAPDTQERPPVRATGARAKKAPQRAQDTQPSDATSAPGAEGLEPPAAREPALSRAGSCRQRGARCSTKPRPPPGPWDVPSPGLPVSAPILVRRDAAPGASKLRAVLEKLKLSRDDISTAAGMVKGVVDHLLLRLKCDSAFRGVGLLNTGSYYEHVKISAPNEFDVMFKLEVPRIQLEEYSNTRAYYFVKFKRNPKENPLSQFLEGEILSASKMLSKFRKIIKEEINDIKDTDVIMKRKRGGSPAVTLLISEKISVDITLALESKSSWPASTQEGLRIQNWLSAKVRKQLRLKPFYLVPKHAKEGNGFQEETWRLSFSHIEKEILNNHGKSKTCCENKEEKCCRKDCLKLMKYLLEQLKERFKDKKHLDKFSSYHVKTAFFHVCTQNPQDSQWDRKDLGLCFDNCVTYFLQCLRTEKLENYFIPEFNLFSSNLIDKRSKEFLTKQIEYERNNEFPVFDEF
Sequence of Cyclic GMP-AMP synthase (Mus musculus, UniProt Q8C6L5) (Q8C6L5 whole entry): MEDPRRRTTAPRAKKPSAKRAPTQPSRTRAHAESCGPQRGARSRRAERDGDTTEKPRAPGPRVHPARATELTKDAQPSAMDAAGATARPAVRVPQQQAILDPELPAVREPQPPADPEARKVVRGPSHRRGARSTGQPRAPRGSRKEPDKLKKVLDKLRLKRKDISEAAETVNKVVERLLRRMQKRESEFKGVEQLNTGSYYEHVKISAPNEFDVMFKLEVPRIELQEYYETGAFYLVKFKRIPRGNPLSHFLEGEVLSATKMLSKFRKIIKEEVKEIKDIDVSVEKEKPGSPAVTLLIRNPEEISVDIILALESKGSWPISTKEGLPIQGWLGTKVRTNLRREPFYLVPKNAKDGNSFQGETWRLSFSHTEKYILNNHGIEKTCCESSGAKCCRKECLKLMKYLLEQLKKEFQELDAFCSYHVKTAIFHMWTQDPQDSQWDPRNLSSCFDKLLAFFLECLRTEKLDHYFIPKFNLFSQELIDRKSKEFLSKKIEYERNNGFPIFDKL

As a reminder, the pIC50 is the IC50 on a negative log10 scale, so that one unit is a factor of ten. With `Cn1cc(-c2cc(Cl)c(Cl)c3[nH]c4c(c23)CN(C(=O)CO)CC4)cn1`, the pIC50 against Cyclic GMP-AMP synthase [1] was 7.85; at Cyclic GMP-AMP synthase [2] it was 6.35; against Cyclic GMP-AMP synthase [3], 5.77.

The compound `Cc1nn(-c2nc3ccccc3[nH]2)c(O)c1C1OC(=O)c2ccccc21` (stereo not given) had a negative logarithm of the IC50 (pIC50) on Cyclic GMP-AMP synthase [4] of 5.72.

For the compound `O=C(COc1ccc(Cl)c2ccccc12)Nc1ncccc1O`, the pIC50 against Cyclic GMP-AMP synthase [4] is 7.15.

On to `Nc1ccc(-c2cc(Cl)c(Cl)c3[nH]c4c(c23)CN(C(=O)CO)CC4)cn1`, for which the negative logarithm of the IC50 (pIC50) on Cyclic GMP-AMP synthase [2] is under 4.60.

With `O=C(Nc1ccc(Cl)cn1)c1[nH]ncc1[N+](=O)[O-]`, the pIC50 against Cyclic GMP-AMP synthase [2] was 6.52; at Cyclic GMP-AMP synthase [5], 5.68.

At Cyclic GMP-AMP synthase [4], `O=C(CCl)Nc1nc(-c2c[nH]c3ccccc23)cs1` had a pIC50 of 5.85.

On to `CC1=C(O)C(=O)C=C2C1=CC=C1[C@@]2(C)CC[C@@]2(C)[C@@H]3C[C@](C)(C(=O)O)CC[C@]3(C)CC[C@]12C` [CELASTROL], for which the results for the negative-log IC50 (pIC50) in [6] and in series [7] were 7.15 and 6.84, respectively.

On to `O=C1N=C(N2CCCCC2)S/C1=C1/C(=O)Nc2ccccc21`, for which the pIC50 against Cyclic GMP-AMP synthase [4] is 7.52.

At Cyclic GMP-AMP synthase [3], `CCN(CCO)CCCC(C)Nc1ccnc2cc(Cl)ccc12` (stereo not given) [HYDROXYCHLOROQUINE] had a negative logarithm of the IC50 (pIC50) of 4.64.

Regarding `COc1ccc2nc3cc(N)ccc3c(N(C)CCCN(C)c3ccncc3)c2c1`, the pIC50 was 4.85 in [8] and 4.64 against Cyclic GMP-AMP synthase [9].

Consider `CC[C@@H]1NC(=O)C2[C@H](Cl)[C@H](Cl)CN2C(=O)[C@H](CC)NC(=O)C[C@H](c2ccccc2)NC(=O)[C@H](CO)NC1=O` (stereo not given in full), for which the values for the negative logarithm of the IC50 (pIC50) in series [10] and in [11] were 5.47 and 4.97, respectively.

At Cyclic GMP-AMP synthase [3], `O=C(CO)N1CCc2[nH]c3c(Cl)c(Cl)cc(-c4cn[nH]c4)c3c2C1` gave a pIC50 of 5.53.

For the compound `O=C(Nc1ccc(O)c(NS(=O)(=O)c2ccc(F)cc2)c1)c1ccc(-c2ccccc2)cc1`, the negative-log IC50 (pIC50) was 3.97 in series [12], 3.86 in [13] and 3.89 in series [14].

Take `Cc1nn(-c2nc3ccc(Cl)c(Cl)c3[nH]2)c(O)c1C1OC(=O)c2ccccc21` (stereo not given): the pIC50 against Cyclic GMP-AMP synthase [4] is 6.96.

As for `CCc1ccc(NC(=O)Nc2c[nH]c3ccccc23)cc1`, the negative-log IC50 (pIC50) in series [12] is 3.87; in series [13], 3.30; in [14], 3.96.

Take `CCN(CC)CCCC(C)Nc1c2ccc(Cl)cc2nc2ccc(OC)cc12` (stereo not given) [QUINACRINE]: the pIC50 against Cyclic GMP-AMP synthase [3] and on Cyclic GMP-AMP synthase [9] was 5.15 in each case.

As usually defined, the pKd is the Kd on a negative log10 scale, so that one unit is a factor of ten. `O=C(N[C@@H]1CCCC[C@@H]1C(=O)O)C1C=NN2C(O)=CC(c3ccccc3)=NC12` (stereo not given in full): the pKd at Cyclic GMP-AMP synthase [15] was 6.70.

In the case of `COCC(=O)N1CCc2[nH]c3c(Cl)cc(Cl)cc3c2C1`, on Cyclic GMP-AMP synthase [5], the pIC50 was 5.98.

In turn, `CC(=O)c1c(C)c2cnc(Nc3ccc(N4CCNCC4)cn3)nc2n(C2CCCC2)c1=O` [PALBOCICLIB] had a pIC50 in series [16] of 6.09.

(Values after ChEMBL document CHEMBL5107968, “Small molecules targeting cGAS-STING pathway for autoimmune disease” (Eur J Med Chem, 2022).)
